Drawing on US9346795B2, “Substituted sulfonamides useful as antiapoptotic Bcl inhibitors” (Bristol-Myers Squibb Company, priority 2011, dated 2016), this text covers IC50 for 14 compounds.

The target in one assay is Bcl-xL (Homo sapiens (Human), UniProt Q07817). The assay can be described thus: Bcl-xL/Bim Fluorescence Resonance Energy Transfer Assay (FRET). The class given is binding. The essentials:
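IC50 values come from non-linear regression over an eleven-point compound titration. Each compound was first incubated with biotinylated Bcl-xL and Bim for 60 min at room temperature. FRET was then detected after a 30 min dark incubation with streptavidin-terbium.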

For a further assay, the target named is Bcl-2 (Homo sapiens (Human), UniProt P10415). The assay can be described thus: Bcl-2/Bim Fluorescence Polarization Assay (FPA). It is filed as binding.

The term IC50 denotes the midpoint of a concentration-inhibition curve. Lower therefore signals higher potency.

Bcl-2, sequence (P10415 whole entry): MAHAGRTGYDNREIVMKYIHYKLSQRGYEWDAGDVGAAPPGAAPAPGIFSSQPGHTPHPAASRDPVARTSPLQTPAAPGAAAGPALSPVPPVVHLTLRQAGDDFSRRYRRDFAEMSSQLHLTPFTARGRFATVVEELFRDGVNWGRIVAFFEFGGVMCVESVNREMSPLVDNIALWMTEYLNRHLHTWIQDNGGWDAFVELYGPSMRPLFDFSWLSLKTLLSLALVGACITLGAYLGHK
Bcl-xL, sequence (Q07817 whole entry): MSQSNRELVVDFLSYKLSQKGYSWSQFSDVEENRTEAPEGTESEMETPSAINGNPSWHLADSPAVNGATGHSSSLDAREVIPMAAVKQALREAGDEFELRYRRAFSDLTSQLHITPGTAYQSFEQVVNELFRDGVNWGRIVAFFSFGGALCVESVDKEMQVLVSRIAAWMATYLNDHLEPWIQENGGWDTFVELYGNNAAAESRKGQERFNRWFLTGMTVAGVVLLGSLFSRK

As for `CCCCN(Cc1ccc(-c2ccc(CC(=O)O)cc2)cc1)C(=O)c1nn(-c2ccc(C(=O)NS(=O)(=O)c3ccc4c(c3)CCN4Cc3ccc(Cl)c(Cl)c3)cc2C(=O)N2CCc3ccccc3C2)c(C)c1Cl` [Example 213, 2-(4′-((N-butyl-4-chloro-1-(4-(1-(3,4-dichlorobenzyl)indolin-5-ylsulfonylcarbamoyl)-2-(1,2,3,4-tetrahydroisoquinoline-2-carbonyl)phenyl)-5-methyl-1H-pyrazole-3-carboxamido)methyl)biphenyl-4-yl)acetic acid], the IC50 at Bcl-xL turned out to be 80 nM; on Bcl-2, 10 nM.
As for `CCCN(CCC)c1ncc(Cl)c(-c2ccc(C(=O)NS(=O)(=O)c3ccc4cccc(Cl)c4c3)cc2C(=O)N2Cc3ccccc3C[C@H]2CN)n1` [Example 329, 3-((S)-3-(Aminomethyl)-1,2,3,4-tetrahydroisoquinoline-2-carbonyl)-4-(5-chloro-2-(dipropylamino)pyrimidin-4-yl)-N-(8-chloronaphthalen-2-ylsulfonyl)benzamide], the IC50 against Bcl-xL was 20 nM; against Bcl-2, 5.09 nM.
Regarding `CCCCN(CCCC)c1ncc(Cl)c(-c2ccc(C(=O)NS(=O)(=O)c3ccc4ccccc4c3)cc2C(=O)N2Cc3ccccc3C[C@H]2CO)n1` [Example 315, 4-(5-Chloro-2-(dibutylamino)pyrimidin-4-yl)-3-((S)-3-(hydroxymethyl)-1,2,3,4-tetrahydroisoquinoline-2-carbonyl)-N-(naphthalen-2-ylsulfonyl)benzamide], the IC50 was determined as 80 nM against Bcl-xL and 60 nM against Bcl-2.
`CCCCN(CCCC)C(=O)c1nn(-c2ccc(C(=O)NS(=O)(=O)c3ccc4ccc(OCCCN(C)C)cc4c3)cc2C(=O)N2CCc3ccccc3C2)c(C)c1Cl` [Example 39, N,N-dibutyl-4-chloro-1-(4-(7-(3-(dimethylamino)propoxy)-naphthalen-2-ylsulfonylcarbamoyl)-2-(1,2,3,4-tetrahydroisoquinoline-2-carbonyl)phenyl)-5-methyl-1H-pyrazole-3-carboxamide]: the IC50 worked out at 20 nM against Bcl-xL and 1460 nM on Bcl-2.
On to `CCCCN(CCCC)C(=O)c1cn(CC(=O)NC)c(-c2ccc(C(=O)NS(=O)(=O)c3ccc4ccccc4c3)cc2C(=O)N2CCc3ccccc3C2)n1` [Example 265, N,N-Dibutyl-1-(2-(methylamino)-2-oxoethyl)-2-(4-(naphthalen-2-ylsulfonylcarbamoyl)-2-(1,2,3,4-tetrahydroisoquinoline-2-carbonyl)phenyl)-1H-imidazole-4-carboxamide], for which the IC50 at Bcl-xL was determined as 70 nM; against Bcl-2, 430 nM.
Turning to `CCCCN(CCCC)C(=O)c1cn(C)c(-c2ccc(C(=O)NS(=O)(=O)c3ccc4ccccc4c3)cc2C(=O)N2CCc3ccccc3C2)n1` [Example 264, N,N-Dibutyl-1-methyl-2-(4-(naphthalen-2-ylsulfonylcarbamoyl)-2-(1,2,3,4-tetrahydroisoquinoline-2-carbonyl)phenyl)-1H-imidazole-4-carboxamide], the IC50 against Bcl-xL is 40 nM; on Bcl-2 it was 110 nM.
Turning to `CCCCN(CCCC)C(=O)c1nn(-c2ccc(C(=O)NS(=O)(=O)c3ccc4ccccc4c3)cc2C(=O)N2Cc3ccccc3C[C@H]2CN2CCN(CCO)CC2)c(C)c1Cl` [Example 115, N,N-dibutyl-4-chloro-1-(2-((S)-3-((4-(2-hydroxyethyl)piperazin-1-yl)methyl)-1,2,3,4-tetrahydroisoquinoline-2-carbonyl)-4-(naphthalen-2-ylsulfonylcarbamoyl)phenyl)-5-methyl-1H-pyrazole-3-carboxamide], the IC50 at Bcl-xL was 20 nM; on Bcl-2, 90 nM.
Consider `CCCCN(CCCC)C(=O)c1nn(-c2ccc(C(=O)NS(=O)(=O)c3ccc4c(Cl)cccc4c3)cc2C(=O)N2CCc3ccccc3C2)c(C)c1Cl` [Example 2, N,N-dibutyl-4-chloro-1-(4-(5-chloronaphthalen-2-ylsulfonylcarbamoyl)-2-(1,2,3,4-tetrahydroisoquinoline-2-carbonyl)phenyl)-5-methyl-1H-pyrazole-3-carboxamide], for which the IC50 is 30 nM on Bcl-xL and 200 nM against Bcl-2.
With `CCCCc1c(-c2ccc(C(=O)NS(=O)(=O)c3ccc4ccccc4c3)cc2C(=O)N2Cc3ccccc3C[C@H]2CO)c(CO)nn1-c1ccccc1` [Example 260, 4-(5-Butyl-3-(hydroxymethyl)-1-phenyl-1H-pyrazol-4-yl)-3-((S)-3-(hydroxymethyl)-1,2,3,4-tetrahydroisoquinoline-2-carbonyl)-N-(naphthalen-2-ylsulfonyl)benzamide], the IC50 against Bcl-xL was determined as 8.01 nM; at Bcl-2 it was 10 nM.
Consider `CCCCN(CCCC)C(=O)c1nn(-c2ccc(C(=O)NS(=O)(=O)c3ccc4c(c3)CCN4C(=O)N3CCOCC3)cc2C(=O)N2CCc3ccccc3C2)c(C)c1Cl` [Example 74, N,N-dibutyl-4-chloro-5-methyl-1-(4-(1-(morpholine-4-carbonyl)indolin-5-ylsulfonylcarbamoyl)-2-(1,2,3,4-tetrahydroisoquinoline-2-carbonyl)phenyl)-1H-pyrazole-3-carboxamide], for which the IC50 is 60 nM against Bcl-xL and 340 nM on Bcl-2.
`CCCCN(CCCC)C(=O)c1nn(-c2ccc(C(=O)NS(=O)(=O)c3ccc4ccccc4c3)cc2C(=O)N2COc3ccccc3C2)c(C)c1Cl` [Example 96, N,N-Dibutyl-4-chloro-1-(2-(3,4-dihydro-2H-benzo[e][1,3]oxazine-3-carbonyl)-4-(naphthalen-2-ylsulfonylcarbamoyl)phenyl)-5-methyl-1H-pyrazole-3-carboxamide]: the figures for the IC50 on Bcl-xL and against Bcl-2 were 60 nM and 120 nM, respectively.
In the case of `CCCCN(CCCC)C(=O)c1nn(-c2ccc(C(=O)NS(=O)(=O)c3ccc4ccc(OC(C)CN(C)C)cc4c3)cc2C(=O)N2CCc3ccccc3C2)c(C)c1Cl` (stereo not shown) [Example 37, N,N-dibutyl-4-chloro-1-(4-(7-(1-(dimethylamino)propan-2-yloxy)naphthalen-2-ylsulfonylcarbamoyl)-2-(1,2,3,4-tetrahydroisoquinoline-2-carbonyl)phenyl)-5-methyl-1H-pyrazole-3-carboxamide], the IC50 was 10 nM on Bcl-xL and 490 nM against Bcl-2.
As to `CCCCN(CCCC)C(=O)c1nn(-c2ccc(C(=O)NS(=O)(=O)c3ccc4ccccc4c3)cc2C(=O)N2Cc3ccccc3S(=O)(=O)C2)c(C)c1Cl` [Example 104, N,N-Dibutyl-4-chloro-1-(2-(1,1-dioxido-3,4-dihydro-2H-benzo[e][1,3]thiazine-3-carbonyl)-4-(naphthalen-2-ylsulfonylcarbamoyl)phenyl)-5-methyl-1H-pyrazole-3-carboxamide], the values for the IC50 against Bcl-xL and against Bcl-2 were 130 nM and 440 nM, respectively.
Take `CCCCN(CCC(=O)NCCN1CCN(C)CC1)C(=O)c1nn(-c2ccc(C(=O)NS(=O)(=O)c3ccc4ccccc4c3)cc2C(=O)N2CCc3ccccc3C2)c(C)c1Cl` [Example 158, N-Butyl-4-chloro-5-methyl-N-(3-(2-(4-methylpiperazin-1-yl)ethylamino)-3-oxopropyl)-1-(4-(naphthalen-2-ylsulfonylcarbamoyl)-2-(1,2,3,4-tetrahydroisoquinoline-2-carbonyl)phenyl)-1H-pyrazole-3-carboxamide]: the IC50 against Bcl-xL worked out at 20 nM; on Bcl-2 it was 70 nM.
